# Test results as given in patent US8895585B2, “Nicotinamide derivative or salt thereof” (FUJIFILM Corporation, priority 2010, dated 2014).
# Target: T1, glutathione S-transferase (GST)-fused full-length human Syk protein (Homo sapiens, UniProt P43405)
# T1 construct: (GST)-fused full-length human Syk protein; GST (glutathione S-transferase); purchased Carna Biosciences
# Experiment: Syk enzyme assay
# Assay type: biochemical
# Settings: Syk enzyme assay, Test Example 1; read-out: IC50 of Syk-inhibitory activity
# Outline: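 Baculovirus-expressed enzyme (1.2 ng) was preincubated with compound in HEPES pH 7.0/MgCl2/DTT buffer, 2 min shaking then 13 min at room temperature. Biotin-EDPDYEWPSA-NH2 (0.4 μM final) and ATP (27 μM final) were added for 40 min at room temperature. EDTA stop, streptavidin-XL/PT66-K TR-FRET at 615/665 nm gave IC50.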
row,Structure (SMILES),IC50
1,"NC(=O)c1cc(F)c(N[C@@H]2CCCC[C@@H]2N)nc1Nc1cncc(-c2ccccc2O)c1 (relative stereo) [Example 004-186, 6-(cis-2-aminocyclohexylamino)-5-fluoro-2-((5-(2-hydroxyphenyl)pyridin-3-yl)amino)nicotinamide]",< 10 nM
2,"NC(=O)c1cc(F)c(N[C@@H]2CCCC[C@@H]2N)nc1Nc1ccc2cn[nH]c2c1 (relative stereo) [Example 006-086, 6-(cis-2-aminocyclohexylamino)-5-fluoro-2-((1H-indazol-6-yl)amino)nicotinamide]",< 10 nM
3,"NC(=O)c1cc(F)c(N[C@@H]2CCCC[C@@H]2N)nc1Nc1cncc(NC(=O)c2ccc(S(=O)(=O)F)cc2)c1 (relative stereo) [Example 027-017, 4-((5-(6-(cis-2-aminocyclohexylamino)-3-carbamoyl-5-fluoropyridin-2-yl)aminopyridin-3-yl)carbamoyl)benzene-1-sulfonyl fluoride]",10 to 50 nM
4,Cc1ccc(-c2cncc(Nc3nc(NC4CCCCC4N)c(F)cc3C(N)=O)c2)o1 (centres unmarked) [Example 002-062],< 10 nM
5,"CCn1nc(C(C)C)c2cc(Nc3nc(N[C@@H]4CCCC[C@@H]4N)c(F)cc3C(N)=O)ccc21 [Example 006-462, 6-(((1R,2S)-2-aminocyclohexyl)amino)-2-((1-ethyl-3-isopropyl-1H-indazol-5-yl)amino)-5-fluoronicotinamide]",< 10 nM
6,NC(=O)c1cc(F)c(NC2CCCCC2N)nc1Nc1ccc(N2CCOCC2=O)nc1 (centres unmarked) [Example 002-162],100 to 1000 nM
7,"COc1nccc2c(Nc3nc(N[C@@H]4CCCC[C@@H]4N)c(F)cc3C(N)=O)cccc12 (relative stereo) [Example 004-155, 6-(cis-2-aminocyclohexylamino)-5-fluoro-2-((1-methoxyisoquinolin-5-yl)amino)-nicotinamide]",< 10 nM
8,COCCNc1ccc(Nc2nc(NC3CCCCC3N)c(F)cc2C(N)=O)cn1 (centres unmarked) [Example 002-076],50 to 100 nM
9,"CC(C)(C)[C@H](N)CNc1nc(Nc2ccc3ncccc3c2)c(C(N)=O)cc1F [Example 014-015, (S)-6-((2-amino-3,3-dimethylbutyl)amino)-5-fluoro-2-((quinolin-6-yl)amino)nicotinamide]",50 to 100 nM
10,NC(=O)c1cc(F)c(NC2CCCCC2N)nc1Nc1cncc(NC(=O)c2cc3ccccc3s2)c1 (centres unmarked) [Example 027-040],10 to 50 nM
11,"NC(=O)c1cc(F)c(N[C@@H]2CCCC[C@@H]2N)nc1Nc1cncc(-c2cccc(N3CCOCC3)c2)c1 (relative stereo) [Example 004-221, 6-(cis-2-aminocyclohexylamino)-5-fluoro-2-((5-(3-morpholinophenyl)pyridin-3-yl)amino)nicotinamide]",< 10 nM
12,NC(=O)c1cc(F)c(NCc2cccnc2)nc1Nc1ccc2ncccc2c1 [Example 012-017],100 to 1000 nM
13,COc1ccc(-c2cc(Nc3nc(NC4CCCCC4N)c(F)cc3C(N)=O)ccn2)cc1 (centres unmarked) [Example 002-184],< 10 nM
14,"C[C@H](N)[C@@H](CC1CC1)Nc1nc(Nc2ccc3c(F)nn(C)c3c2)c(C(N)=O)cc1F [Example 006-440, 6-(((2R,3S)-3-amino-1-cyclopropylbutan-2-yl)amino)-5-fluoro-2-((3-fluoro-1-methyl-1H-indazol-6-yl)amino)nicotinamide]",10 to 50 nM
15,NC(=O)c1cc(F)c(N[C@@H](CO)Cc2ccccc2)nc1Nc1ccc2ncccc2c1 [Example 012-023],100 to 1000 nM
16,"CC[C@H](N)C(CC(C)C)Nc1nc(Nc2ccc3ncccc3c2)c(C(N)=O)cc1F (stereo partly drawn) [Example 006-151, 6-(((5S)-5-amino-2-methylheptan-4-yl)amino)-5-fluoro-2-(quinolin-6-ylamino)nicotinamide]",10 to 50 nM
17,"COC(C)CCOc1nccc2c(Nc3nc(N[C@@H]4CCCC[C@@H]4N)c(F)cc3C(N)=O)cccc12 (relative stereo) [Example 004-157, 6-(cis-2-aminocyclohexylamino)-5-fluoro-2-((1-(3-methoxybutoxy)isoquinolin-5-yl)amino)-nicotinamide]",10 to 50 nM
18,"NC(=O)c1cc(F)c(N[C@@H]2CCCC[C@@H]2N)nc1Nc1cncc(-c2ccc(F)cc2)c1 (relative stereo) [Example 004-145, 6-(cis-2-aminocyclohexylamino)-5-fluoro-2-((5-(4-fluorophenyl)pyridin-3-yl)amino)-nicotinamide]",< 10 nM
19,CCC[C@@H](Nc1nc(Nc2ccc3ncccc3c2)c(C(N)=O)cc1F)C(N)=O [Example 012-038],10 to 50 nM
20,NC(=O)c1cc(F)c(NC2CCCCC2N)nc1Nc1cncc(-c2ccc3c(c2)NC(=O)CO3)c1 (centres unmarked) [Example 002-177],< 10 nM
21,"NC(=O)c1cc(F)c(N[C@H](c2ccccc2)[C@@H](N)c2ccccc2)nc1Nc1cccc(-n2nccn2)c1 (racemic) [Example 006-138, 2-((3-(2H-1,2,3-triazol-2-yl)phenyl)amino)-6-(((1R,2S)-2-amino-1,2-diphenylethyl)amino)-5-fluoronicotinamide 2-((3-(2H-1,2,3-triazol-2-yl)phenyl)amino)-6-(((1S,2R)-2-amino-1,2-diphenylethyl)amino)-5-fluoronicotinamide]",10 to 50 nM
22,CNC(=O)c1cncc(Nc2nc(N[C@@H]3CCCC[C@@H]3N)c(F)cc2C(N)=O)c1 [Example 004-010],10 to 50 nM

row,Structure (SMILES),IC50
1,"COc1cc(Nc2nc(N[C@@H]3COCC[C@@H]3N)c(F)cc2C(N)=O)ccn1 [Example 006-532, 6-(((3S,4S)-4-aminotrahydro-2H-pyran-3-yl)amino)-5-fluoro-2-((2-methoxypyridin-4-yl)amino)nicotinamide]",100 to 1000 nM
2,"NC(=O)c1cc(F)c(NC[C@@H](N)c2cccnc2)nc1Nc1ccc2ncccc2c1 [Example 014-018, (S)-6-((2-amino-2-(pyridin-3-yl)ethyl)amino)-5-fluoro-2-((quinolin-6-yl)amino)nicotinamide]",10 to 50 nM
3,COc1ncc(Nc2nc(NC3CCCCC3N)c(F)cc2C(N)=O)cc1C1CC1 (centres unmarked) [Example 002-153],10 to 50 nM
4,"CC(C)(N)CNc1nc(Nc2ccc3ncccc3c2)c(C(N)=O)cc1F [Example 014-011, 6-((2-amino-2-methylpropyl)amino)-5-fluoro-2-((quinolin-6-yl)amino)nicotinamide]",10 to 50 nM
5,"Cn1nnc2cc(C(=O)Nc3cncc(Nc4nc(N[C@@H]5CCCC[C@@H]5N)c(F)cc4C(N)=O)c3)ccc21 (relative stereo) [Example 027-042, N-(5-(6-(cis-2-aminocyclohexylamino)-3-carbamoyl-5-fluoropyridin-2-yl)aminopyridin-3-yl)-1-methyl-1H-benzo[d][1,2,3]triazol-5-carboxamide]",< 10 nM
6,COc1cccc(Nc2nc(NC3CCCCC3N)c(F)cc2C(N)=O)c1 (centres unmarked) [Example 002-006],< 10 nM
7,"CCOc1ncc(Nc2nc(N[C@@H]3CCCC[C@@H]3N)c(F)cc2C(N)=O)cc1C1CC1 [Example 006-573, 6-(((1R,2S)-2-aminocyclohexyl)amino)-2-((5-cyclopropyl-6-ethoxypyridin-3-yl)amino)-5-fluoronicotinamide]",10 to 50 nM
8,NC(=O)c1cc(F)c(NC2CCCCC2N)nc1Nc1ccnc(-c2cc(Cl)ccc2F)c1 (centres unmarked) [Example 002-147],< 10 nM
9,COCCOc1nc2ccc(Nc3nc(NC4CCCCC4N)c(F)cc3C(N)=O)cc2nc1OCCOC (centres unmarked) [Example 002-121],100 to 1000 nM
10,NC(=O)c1cc(F)c(NC2CCCCC2N)nc1Nc1ccnc(-c2ccccc2)c1F (centres unmarked) [Example 002-167],10 to 50 nM
11,NCCNCCNc1nc(Nc2ccc3ncccc3c2)c(C(N)=O)cc1F [Example 002-128],100 to 1000 nM
12,"NC(=O)c1cc(F)c(N[C@@H]2CCCC[C@@H]2N)nc1Nc1cncc(N2CCCCC2=O)c1 (relative stereo) [Example 004-108, 6-(cis-2-aminocyclohexylamino)-5-fluoro-2-((5-(2-oxopiperidine-1-yl)pyridin-3-yl)amino)-nicotinamide]",100 to 1000 nM
13,NC(=O)c1cc(F)c(NC2CCCCC2N)nc1Nc1cncc(NC(=O)c2cccs2)c1 (centres unmarked) [Example 027-031],< 10 nM
14,CC(C)C[C@@H](Nc1nc(Nc2ccc3ncccc3c2)c(C(N)=O)cc1F)c1ncc[nH]1 [Example 012-030],100 to 1000 nM
15,"NC(=O)c1cc(F)c(NC2CCCC[C@@H]2N)nc1Nc1cnc2c(NS(=O)(=O)c3ccc(C(F)(F)F)cc3)cccc2c1 (stereo partly drawn) [Example 41-7, 6-(cis-2-aminocyclohexylamino)-5-fluoro-2-((8-(4-(trifluoromethyl)phenylsulphonamide)-quinolin-3-yl)amino)nicotinamide]",100 to 1000 nM
16,Cc1cc(C)cc(Nc2nc(NCCN)c(Cl)cc2C(N)=O)c1 [Example 035-008],< 10 nM
17,"COCCn1ccc2c(Nc3nc(N[C@@H]4CCCC[C@@H]4N)c(F)cc3C(N)=O)cc(F)cc21 (relative stereo) [Example 004-084, 6-(cis-2-aminocyclohexylamino)-5-fluoro-2-((6-fluoro-1-(2-methoxyethyl)-1H-indol-4-yl)amino)nicotinamide]",< 10 nM
18,COc1cc(Nc2nc(N[C@H](C(N)=O)c3ccccc3)c(F)cc2C(N)=O)cc(OC)c1 [Example 016-018],100 to 1000 nM
19,CN(C)c1ccc(Nc2nc(NC3CCCCC3N)c(F)cc2C(N)=O)cn1 (centres unmarked) [Example 002-074],50 to 100 nM
20,Cc1ncc(Nc2nc(NC3CCCCC3N)c(F)cc2C(N)=O)cc1-n1cncn1 (centres unmarked) [Example 002-138],50 to 100 nM
21,"Cc1ncc(Nc2nc(N[C@@H]3CCCC[C@@H]3N)c(F)cc2C(N)=O)cc1-n1ccnn1 (relative stereo) [Example 006-152, 6-((cis-2-aminocyclohexyl)amino)-5-fluoro-2-((6-methyl-5-(1H-1,2,3-triazol-1-yl)pyridin-3-yl)amino)nicotinamide]",10 to 50 nM

# Same assay, conditions: read-out: Syk-inhibitory activity (IC50)
row,Structure (SMILES),IC50
1,"Cn1ncc2ccc(Nc3nc(NCCN)c(F)cc3C(N)=O)cc21 [Example 6-27, 6-((2-aminoethyl)amino)-5-fluoro-2-((1-methyl-1H-indazol-6-yl)amino)nicotinamide]",≤ 1000 nM
